Experimental data from patent US10143668B2, “Hydroxy-substituted amino and ammonium derivatives and their medical use” (GRI BIO, INC., priority 2011, dated 2018).
Marks after values point to notes of the source that are not given here.

How the values were obtained:
[1] = tested on: local lymph node reaction; assay: Local lymph node weight and cell count after TDI challenge; conditions: topical, diflorasone 0.1% and 0.5%, 1a 2% or 6%
Protocol: Directly after sacrifice, the ear draining lymph node (Ln. auricularis) was prepared and excised. Organ weight was determined by means of an analytical balance (Kern, Balingen, Germany). Single cell suspensions were prepared by means of a glass potter (VWR, Darmstadt, Germany) and cells were counted with a hemocytometer (Neubauer, VWR, Germany).
One of the most undesirable side-effects of corticosteroid administration is immunosuppression, which leads to the inability to effectively address parasitic infection, wound healing and tumor growth. In the current study, the local lymph node reaction after TDI challenge (lymph node weight and cell number) was determined to assess the response of immune organs.

[2] = tested on: allergic contact dermatitis response in mice; assay: Allergic contact dermatitis (TDI) model in mice, mouse ear swelling test; format: in vivo; conditions: topical, 2 h before challenge
Protocol: The anti-inflammatory and anti-allergic effects of compound 1a were assessed in a mouse model of allergic contact dermatitis, a response driven primarily by T helper type 2 (Th2) cells. […] In this model, an allergic dermatitis response is obtained by sensitizing mice to TDI and subsequently challenging them with antigen by topical administration onto the ears. A quantitative assessment of anti-inflammatory and anti-allergic effects of topically or orally administered test compounds is possible by measuring the resulting ear swelling.
Female BALB/c-mice were obtained from Charles River (Sulzfeld, Germany) at age 8 weeks. All animals were housed in groups of eight per cage at 22° C. with a 12 h light/dark-cycle. Water and a standard diet (Altromin, Lage/Lippe, Germany) were available ad libitum. All animals were acclimatized for one week before experimental procedures were commenced.
Experimental procedures for BALB/c mice housing, TDI sensitization and challenge, and measurement of ear thickness were performed as previously described (Baumer et al., J Pharm Pharmacol. 55:1107-1114 (2003)) with the following modifications. For active sensitization, 100 μL of 5% (w/v) TDI was administered to the shaved and stripped abdominal epidermis on day one, and for the next three consecutive days, 50 μL of 5% (w/v) TDI was applied. The allergic reaction was boosted 21 days later by application of 50 μL of 0.5% (w/v) TDI. For the examination of test compound effects, the left ears were used for the TDI challenge (20 μL of 0.5% in acetone) and ear thickness measured 3 h before and 24 h after challenge.
Administration time: to determine optimal time for administration treatment groups were treated orally by gavage with 100 mg/kg of compound 1a (suspended in 0.5% tylose, 10 mL/kg) 1, 4 or 16 h before topical TDI challenge. One group was treated with 100 mg/kg miltefosine orally, 16 h before challenge (based on available data for optimal administration time for miltefosine) and vehicle treated mice received tylose (10 mL/kg) orally, 4 h before challenge.
Comparison with dexamethasone: one group of mice was treated orally with compound 1a at 100 mg/kg suspended in 0.5% tylose, 4 h before topical TDI challenge. Vehicle treated mice received 0.5% tylose orally 4 h before challenge. As a positive control, dexamethasone was administered in saline solution at 1 mg/kg or 3 mg/kg, 2 h and 30 min before challenge and 1 h after challenge. The dose and dosing scheme for dexamethasone was based on previous experience showing a maximal effect in this model.
[…] The solution was applied, 2 h before topical TDI challenge by administration of 10 μl onto each of the inner and outer surfaces of the left ears. A vehicle group (n=5) was treated with propyleneglycol. As a positive control, diflorasone diacetate was administered at 0.01% (low dose) and 0.05% (high dose) in 20 μl acetone, 2 h before challenge. A basal control group was left untreated.
Mean and standard error of the mean (SEM) were calculated from individual ear edema values. Statistical evaluation was a one-way analysis of variance (ANOVA) (if the test for normal distribution was passed) or the Kruskal-Wallis one-way ANOVA on Ranks (if the normal distribution test failed). Both were followed by a post-hoc test (Dunnett's method or Dunn's test, respectively). A p<0.05 was considered to be significant.

Compound: CC(=O)OCC(=O)[C@@]1(OC(C)=O)[C@@H](C)C[C@H]2[C@@H]3C[C@H](F)C4=CC(=O)C=C[C@]4(C)[C@@]3(F)[C@@H](O)C[C@@]21C [Diflorasone, diflorasone diacetate, reference compound]
- local lymph node reaction (lymph node weight and cell number) [1]: highly significant reduction
- Inhibition of mouse ear swelling ([2]; 0.1%): 101.1*** %
- Inhibition of mouse ear swelling ([2]; 0.5%): 110.8*** %
